Measurements reported in patent US7541188B2, “Skin substitutes and uses thereof” (Stratatech Corporation, priority 2001, dated 2009).
Like-named read-outs stand apart in the source and are kept apart here.

Key:
[1] = test system: NIKS organotypic cultures; experiment: IL-1α secretion by NIKS organotypic cultures (Quantikine IL-1α ELISA of media); format: cell-based, human; details: 0.1% SDS applied topically, 24 hr, 37° C.
Experimental: Solutions of SDS (0.1%, 0.2%, and 0.5%) were topically applied to air-exposed NIKS organotypic cultures and incubated for 24 hr at 37° C. After 24 hr, the media underneath the cultures was assayed for IL-1α protein using a Quantikine IL-1α ELISA kit (R&D Systems, Minneapolis, Minn.) and cultures were incubated with MTS reagent (Promega Corp., Madison, Wis.) to determine cell viability. Media from untreated cultures contained 25 pg/ml IL-1α, whereas the concentration of IL-1α in cultures treated with 0.1%, 0.2% or 0.5% SDS was 290, 375 and 275 pg/ml respectively.

skin equivalents = details: irritant-treated skin equivalents; cited from earlier work
[2] = test system: tracheobronchial epithelial cells; details: cited from earlier work
[3] = test system: in vitro skin equivalent cultures; details: substance added to in vitro cultures; cited from earlier work
[4] = test system: in vitro skin equivalent cultures; details: substance added to in vitro cultures, cited from earlier work

## CCCCCCCCCCCCOS(=O)(=O)[O-].[Na+] [SDS]
[1]
  concentration of IL-1α in media: 290 pg/mL
Skin equivalents
  expression and secretion of the pro-inflammatory cytokines IL-1α and IL-8: induce expression and secretion

## C=C1/C(=C\C=C2/CCC[C@]3(C)[C@@H]([C@H](C)/C=C/[C@@H](O)C4CC4)CC[C@@H]23)C[C@@H](O)C[C@@H]1O [calcipotriol]
Skin equivalents
  expression and secretion of the pro-inflammatory cytokines IL-1α and IL-8: induce expression and secretion

## CC1=C(/C=C/C(C)=C/C=C/C(C)=C/C(=O)O)C(C)(C)CCC1 [trans-retinoic acid]
Skin equivalents
  expression and secretion of the pro-inflammatory cytokines IL-1α and IL-8: induce expression and secretion
[2]
  induction of reporter gene containing IL-8 promoter sequences between −1472 and +19: induced

## EGF: epidermal growth factor (NSDSECPLSHDGYCLHDGVCMYIEALDKYACNCVVGYIGERCQYRDLKWWELR; Epidermal growth factor; UniProt P01133 971-1023, looked up)
[3]
  Lipid Composition: High

## Estrogen
[4]
  Barrier Function: Accelerates

## Vitamin D
[4]
  Barrier Function: Improved/No
[4]; listed as vitamin D
  Barrier Function: improvements in some studies
